In PubChem BioAssay AID651870 (NMMLSC, 2012):

Tested on: AM2.2-beta2AR cells viability, CellTiter-Glo luminescence, 18 h
Experiment: cytotoxic effect in β2-adrenoceptor-expressing AM2.2 line, concentration-response curve, toxicity counterscreen for β2-adrenoceptor internalization ligand effort, cell-based, luminescent CellTiter-Glo detection, Powder Set 4 (AID 651870)

Row | SMILES | EC50 [µM]
1 | CCCCC(=O)Nc1ccc(S(=O)(=O)N2CCCCC2c2cccnc2)cc1 (stereo not drawn) | 8.76
2 | CN(CC(=O)N1CCN(c2cccc(C(F)(F)F)c2)CC1)S(=O)(=O)c1ccc(F)cc1 | 31.9
3 | Cc1ccc(S(=O)(=O)N2CCCCC2C(=O)N2CCN(c3ccc(C(F)(F)F)cn3)CC2)cc1 (stereo not drawn) | 12.8
